From patent US7754249B2, “Haircare compositions and methods” (The Boots Company PLC, priority 2004, dated 2010)

Test system: interleukin-2 (IL-2) production
Assay: IL-2 inhibition assay in pha-stimulated human lymphocytes
Format: cell-based
Settings: preliminary trial; cultured human lymphocytes stimulated with pha, with or without CsA
Description: The potential for the extracts to reduce/prevent hair loss or promote hair growth were assessed by an IL-2 inhibition assay. IL-2 has been associated with inhibition of hair growth and promotion of hair loss.
Human lymphocytes were extracted from blood and cultured using standard techniques. A preliminary trial was carried out to ensure that test cells were able to produce IL-2 when stimulated with phytohaemogluttinin (pha), a known IL-2 promoter, and also for this stimulation to be inhibited using Cyclosporin A (CsA) which is a known inhibitor of IL-2 production.
Following this confirmation of the capability of the cells to produce IL-2, studies using the extracts were carried out using the same methodology, but with the extracts replacing CsA. Results are shown in Table 2 and expressed as % IL-2 inhibition compared to control.
Control=50% denatured ethanol, 50% propylene glycol.
All materials were used at 1 in 1000 dilution.

phytohaemogluttinin [pha]
IL-2: >1000 pg/mL
